In US8969629B2, “Cyclic compound, production process thereof, radiation-sensitive composition and resist pattern formation method” (Mitsubishi Gas Chemical Company, Inc., priority 2009, dated 2015):

Experiment: Solubility test of compound in safe solvent
Format: physicochemical
Settings: for dissolution amount in CHN: cyclohexanone (CHN); for dissolution amount in PGME: propylene glycol monomethyl ether (PGME)
Text: A: 5.0 wt %≦dissolution amount
B: 3.0 wt %≦dissolution amount<5.0 wt %
C: dissolution amount<3.0 wt %

## Oc1ccc(C2c3cc(c(OC4CCCCC4)cc3O)C(c3ccc(O)cc3)c3cc(c(O)cc3OC3CCCCC3)C(c3ccc(O)cc3)c3cc(c(OC4CCCCC4)cc3O)C(c3ccc(O)cc3)c3cc2c(O)cc3OC2CCCCC2)cc1 (centres unmarked) [CR-1A]
  dissolution amount in CHN: A (5.0 wt %≦dissolution amount)
  dissolution amount in PGME: A (5.0 wt %≦dissolution amount)

## Oc1ccc(C2c3cc(c(OC4CCCCC4)cc3O)C(c3ccc(O)c(O)c3)c3cc(c(O)cc3OC3CCCCC3)C(c3ccc(O)c(O)c3)c3cc(c(OC4CCCCC4)cc3O)C(c3ccc(O)c(O)c3)c3cc2c(O)cc3OC2CCCCC2)cc1O (centres unmarked) [CR-2A]
  dissolution amount in CHN: A (5.0 wt %≦dissolution amount)
  dissolution amount in PGME: A (5.0 wt %≦dissolution amount)

## CC1CCC(Oc2cc(O)c3cc2C(c2ccc(O)cc2)c2cc(c(O)cc2OC2CCC(C)CC2)C(c2ccc(O)cc2)c2cc(c(OC4CCC(C)CC4)cc2O)C(c2ccc(O)cc2)c2cc(c(O)cc2OC2CCC(C)CC2)C3c2ccc(O)cc2)CC1 (centres unmarked) [CR-3A]
  dissolution amount in CHN: A (5.0 wt %≦dissolution amount)
  dissolution amount in PGME: A (5.0 wt %≦dissolution amount)

## Cc1cc(C2c3cc(c(OC4CCC(C)CC4)cc3O)C(c3ccc(O)c(O)c3)c3cc(c(O)cc3OC3CCC(C)CC3)C(c3ccc(O)c(O)c3)c3cc(c(OC4CCC(C)CC4)cc3O)C(c3ccc(O)c(O)c3)c3cc2c(O)cc3OC2CCC(C)CC2)ccc1O (centres unmarked) [CR-4A]
  dissolution amount in CHN: A (5.0 wt %≦dissolution amount)
  dissolution amount in PGME: A (5.0 wt %≦dissolution amount)

## CC1CC(Oc2cc(O)c3cc2C(c2ccc(O)c(O)c2)c2cc(c(O)cc2OC2CC(C)CC(C)(C)C2)C(c2ccc(O)c(O)c2)c2cc(c(OC4CC(C)CC(C)(C)C4)cc2O)C(c2ccc(O)c(O)c2)c2cc(c(O)cc2OC2CC(C)CC(C)(C)C2)C3c2ccc(O)c(O)c2)CC(C)(C)C1 (centres unmarked) [CR-7A]
  dissolution amount in CHN: A (5.0 wt %≦dissolution amount)
  dissolution amount in PGME: A (5.0 wt %≦dissolution amount)

## COc1cc(O)c2cc1C(c1ccc(C)cc1C)c1cc(c(O)cc1OC)C(c1ccc(C)cc1C)c1cc(c(OC)cc1O)C(c1ccc(C)cc1C)c1cc(c(O)cc1OC)C2c1ccc(C)cc1C (centres unmarked) [CR-8A, reference compound]
  dissolution amount in CHN: C (dissolution amount<3.0 wt %)
  dissolution amount in PGME: C (dissolution amount<3.0 wt %)

## CCOc1cc(O)c2cc1C(c1ccc(OC)cc1)c1cc(c(O)cc1OCC)C(c1ccc(OC)cc1)c1cc(c(OCC)cc1O)C(c1ccc(OC)cc1)c1cc(c(O)cc1OCC)C2c1ccc(OC)cc1 (centres unmarked) [CR-9A, reference compound]
  dissolution amount in CHN: C (dissolution amount<3.0 wt %)
  dissolution amount in PGME: C (dissolution amount<3.0 wt %)
